Tests used:
[1] = target: EED (hEED) (Homo sapiens, UniProt O75530); assay: SPR (Biacore T200), EED immobilized on CM5 chip; assay type: binding
[2] = target: EZH2 (zEZH2) (Danio rerio, UniProt Q08BS4); assay: SPR (Biacore T200), EZH2 immobilized on CM5 chip; assay type: binding
[3] = target: T1, EZH2 (wild type PRC2 complex) (Homo sapiens, UniProt Q15910); assay: in vitro methyltransferase assay with recombinant PRC2 and histone H3.[…], western blot readout; assay type: biochemical
T1 construct: wild type PRC2 complex (31387, Active Motif); with PRC2 complex (EED, SUZ12)
T1 sequence (Q15910 whole entry): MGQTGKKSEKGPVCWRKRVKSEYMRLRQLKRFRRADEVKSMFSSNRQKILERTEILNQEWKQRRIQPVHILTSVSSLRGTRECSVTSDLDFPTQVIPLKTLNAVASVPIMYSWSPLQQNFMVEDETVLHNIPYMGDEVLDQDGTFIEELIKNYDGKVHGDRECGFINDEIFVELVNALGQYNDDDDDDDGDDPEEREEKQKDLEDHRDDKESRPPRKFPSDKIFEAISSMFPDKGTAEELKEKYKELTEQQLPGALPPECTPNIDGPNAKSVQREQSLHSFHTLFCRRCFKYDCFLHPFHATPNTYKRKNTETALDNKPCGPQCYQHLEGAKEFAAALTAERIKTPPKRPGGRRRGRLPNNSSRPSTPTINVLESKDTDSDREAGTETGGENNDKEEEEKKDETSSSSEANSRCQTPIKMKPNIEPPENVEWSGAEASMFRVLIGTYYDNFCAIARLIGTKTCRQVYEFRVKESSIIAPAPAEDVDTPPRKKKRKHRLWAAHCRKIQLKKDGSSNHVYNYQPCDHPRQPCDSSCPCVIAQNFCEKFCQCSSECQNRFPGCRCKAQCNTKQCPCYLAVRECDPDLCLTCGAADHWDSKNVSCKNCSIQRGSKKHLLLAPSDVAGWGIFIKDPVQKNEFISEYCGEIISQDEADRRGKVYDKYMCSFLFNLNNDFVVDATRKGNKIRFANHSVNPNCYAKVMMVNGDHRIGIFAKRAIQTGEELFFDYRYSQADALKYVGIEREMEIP
T1 sequence (O75530 2-441 partner): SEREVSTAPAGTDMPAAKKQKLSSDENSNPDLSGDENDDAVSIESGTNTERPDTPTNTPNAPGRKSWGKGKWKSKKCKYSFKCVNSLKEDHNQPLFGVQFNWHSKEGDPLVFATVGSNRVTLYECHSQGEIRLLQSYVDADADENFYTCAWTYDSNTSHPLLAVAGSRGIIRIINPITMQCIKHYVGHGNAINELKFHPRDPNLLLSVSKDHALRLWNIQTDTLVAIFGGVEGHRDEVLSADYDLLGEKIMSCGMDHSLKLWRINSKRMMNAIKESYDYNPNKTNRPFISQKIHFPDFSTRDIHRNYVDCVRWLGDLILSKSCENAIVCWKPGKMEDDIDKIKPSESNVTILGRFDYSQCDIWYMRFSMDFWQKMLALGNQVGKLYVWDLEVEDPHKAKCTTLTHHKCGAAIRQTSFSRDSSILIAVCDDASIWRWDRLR
T1 sequence (Q15022 whole entry partner): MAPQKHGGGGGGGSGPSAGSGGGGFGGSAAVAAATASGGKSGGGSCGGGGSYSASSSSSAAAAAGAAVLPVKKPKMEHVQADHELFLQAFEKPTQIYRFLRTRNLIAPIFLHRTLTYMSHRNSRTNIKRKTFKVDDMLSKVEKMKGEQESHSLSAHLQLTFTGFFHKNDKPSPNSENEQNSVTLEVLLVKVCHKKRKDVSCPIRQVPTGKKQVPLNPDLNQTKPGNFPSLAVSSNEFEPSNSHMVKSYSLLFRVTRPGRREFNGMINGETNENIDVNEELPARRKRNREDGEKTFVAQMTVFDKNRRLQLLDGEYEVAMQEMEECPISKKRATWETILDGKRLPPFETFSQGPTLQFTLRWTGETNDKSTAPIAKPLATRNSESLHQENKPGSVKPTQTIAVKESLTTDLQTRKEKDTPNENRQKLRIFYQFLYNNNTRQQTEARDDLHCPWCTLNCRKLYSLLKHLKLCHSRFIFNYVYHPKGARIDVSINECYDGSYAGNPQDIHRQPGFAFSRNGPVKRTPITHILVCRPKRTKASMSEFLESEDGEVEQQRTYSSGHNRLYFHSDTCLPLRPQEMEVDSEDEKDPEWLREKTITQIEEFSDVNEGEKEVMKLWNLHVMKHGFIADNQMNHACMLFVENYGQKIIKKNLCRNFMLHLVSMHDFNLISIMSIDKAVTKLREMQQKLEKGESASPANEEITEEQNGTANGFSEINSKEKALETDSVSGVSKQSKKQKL
T1 sequence (Q09028 2-425 partner): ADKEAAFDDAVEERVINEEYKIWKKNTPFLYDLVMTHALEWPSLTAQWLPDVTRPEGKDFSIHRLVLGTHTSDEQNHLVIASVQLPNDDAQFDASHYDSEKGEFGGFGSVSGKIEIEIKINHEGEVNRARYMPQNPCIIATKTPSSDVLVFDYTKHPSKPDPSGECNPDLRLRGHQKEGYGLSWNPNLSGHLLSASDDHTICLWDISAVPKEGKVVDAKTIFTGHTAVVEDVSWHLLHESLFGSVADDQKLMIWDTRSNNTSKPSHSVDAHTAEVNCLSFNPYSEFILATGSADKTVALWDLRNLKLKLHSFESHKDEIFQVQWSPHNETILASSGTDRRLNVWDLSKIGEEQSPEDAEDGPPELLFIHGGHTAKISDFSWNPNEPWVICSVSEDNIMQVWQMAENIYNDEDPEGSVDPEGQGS
T1 sequence (Q6ZN18 2-517 partner): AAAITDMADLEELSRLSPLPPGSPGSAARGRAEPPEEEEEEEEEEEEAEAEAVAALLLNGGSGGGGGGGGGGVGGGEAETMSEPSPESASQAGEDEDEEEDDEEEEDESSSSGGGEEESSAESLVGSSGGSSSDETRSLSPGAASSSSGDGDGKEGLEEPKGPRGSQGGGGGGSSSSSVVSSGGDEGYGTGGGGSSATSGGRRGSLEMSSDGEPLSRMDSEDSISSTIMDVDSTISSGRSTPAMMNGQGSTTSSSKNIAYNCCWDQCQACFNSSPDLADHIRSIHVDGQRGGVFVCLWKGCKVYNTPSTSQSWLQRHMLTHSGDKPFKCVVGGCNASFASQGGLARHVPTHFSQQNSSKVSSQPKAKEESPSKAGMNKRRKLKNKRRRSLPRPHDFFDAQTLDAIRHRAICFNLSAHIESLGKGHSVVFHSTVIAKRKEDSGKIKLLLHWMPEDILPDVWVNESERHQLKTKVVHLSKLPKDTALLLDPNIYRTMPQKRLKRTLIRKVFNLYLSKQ

Chain of EZH2 (zEZH2) (Q08BS4 whole entry): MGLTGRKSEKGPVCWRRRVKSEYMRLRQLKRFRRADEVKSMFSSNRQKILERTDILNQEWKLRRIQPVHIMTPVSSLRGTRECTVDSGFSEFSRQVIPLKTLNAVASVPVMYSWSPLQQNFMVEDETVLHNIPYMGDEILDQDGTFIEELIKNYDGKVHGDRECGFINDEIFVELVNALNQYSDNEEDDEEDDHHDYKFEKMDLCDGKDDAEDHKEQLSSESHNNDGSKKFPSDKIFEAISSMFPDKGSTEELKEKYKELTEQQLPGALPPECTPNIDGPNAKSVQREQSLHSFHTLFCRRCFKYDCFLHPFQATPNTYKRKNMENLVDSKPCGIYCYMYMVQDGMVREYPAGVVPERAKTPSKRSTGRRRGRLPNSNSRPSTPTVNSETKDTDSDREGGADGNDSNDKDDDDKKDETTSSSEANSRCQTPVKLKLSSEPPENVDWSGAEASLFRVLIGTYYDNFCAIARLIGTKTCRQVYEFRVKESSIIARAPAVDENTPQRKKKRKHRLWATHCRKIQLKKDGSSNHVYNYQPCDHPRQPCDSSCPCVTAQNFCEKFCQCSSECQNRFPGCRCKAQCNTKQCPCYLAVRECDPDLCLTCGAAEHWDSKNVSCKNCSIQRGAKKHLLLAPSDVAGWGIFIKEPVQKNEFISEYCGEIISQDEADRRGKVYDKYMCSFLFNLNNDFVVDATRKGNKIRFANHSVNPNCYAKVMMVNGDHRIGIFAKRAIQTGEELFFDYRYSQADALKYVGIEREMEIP
Chain of EED (hEED) (O75530 2-441): as the sequence (O75530 2-441 partner) above

Cc1coc2c1C(=O)C(=O)c1c-2ccc2c(C)cccc12 [Tan I, Tanshinone I]
Kd [1]: 94.5 µM
Kd [2]: 29.4 µM
in vitro methyltransferase assay with recombinant PRC2 and histone H3.3, western [3]: ~ 5 μM
